Assay results from US20190345478A1, “T[…] AND SYSTEMS FOR DIAGNOSIS AND TREATMENT OF MALARIA” (WILLIAM MARSH RICE UNIVERSITY, priority 2012, published 2019).

System: Plasmodium falciparum (strain 3D7)
Assay: Parasiticidal effect: level of parasitemia (percentage of MIRBCs) after bulk flow treatment of P. falciparum-infected human RBCs
Type: cell-based
Details: chloroquine 1 μM added immediately prior to flow treatment; PTNB mode 70 ps laser pulse; level of MIRBCs at 24 hours; FIG. 12c

CCN(CC)CCCC(C)Nc1ccnc2cc(Cl)ccc12 (stereo not shown) [chloroquine]
parasiticidal efficacy of PTNB mode compared with chloroquine: three-fold higher parasiticidal efficacy than chloroquine
